Test results published in ChEMBL document CHEMBL3124857, “Encoded library technology as a source of hits for the discovery and lead optimization of a potent and selective class of bactericidal direct inhibitors of Mycobacterium tuberculosis InhA” (J Med Chem, 2014).
In brackets after ≈: the same amount, converted by molar mass. Activity calls are given as the source filed them. The rule behind the calls is not given here.

What was measured:
[1] = biological target: T1, Enoyl-[acyl-carrier-protein] reductase [NADH] (Mycobacterium tuberculosis, UniProt P9WGR1); assay: Inhibition of Mycobacterium tuberculosis full length biotinylated InhA (270 amino acids) using DDCoA as substrate assessed as NADH oxidation by fluorimetric analysis
T1 sequence (P9WGR1 whole entry): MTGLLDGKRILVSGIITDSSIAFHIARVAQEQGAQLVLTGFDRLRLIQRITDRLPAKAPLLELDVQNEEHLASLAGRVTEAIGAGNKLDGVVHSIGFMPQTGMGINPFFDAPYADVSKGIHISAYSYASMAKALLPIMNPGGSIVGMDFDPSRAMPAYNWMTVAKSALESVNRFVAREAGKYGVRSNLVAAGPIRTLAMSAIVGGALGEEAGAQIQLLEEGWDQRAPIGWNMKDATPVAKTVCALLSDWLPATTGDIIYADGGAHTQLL

[2] = test system: Mycobacterium tuberculosis; assay: Antitubercular activity against wild type Mycobacterium tuberculosis H37Rv ATCC 25618 assessed as growth inhibition after 6 days by resazurin dye-based assay; format: functional; settings: for MIC90: H37Rv ATCC 25618, 144 h

CCc1cc(C(=O)N[C@@H]2C[C@@H](C(=O)O)N(C(=O)c3coc4ccccc34)C2)n(C)n1
IC50 [1]: 1290 nM

CCc1cc(C(=O)N[C@@H]2C[C@@H](C(=O)N[C@H](CO)Cc3ccccc3)N(C(=O)c3coc4ccccc34)C2)n(C)n1
MIC90 [2]: 1 µM (≈ 0.544 µg/mL) | IC50 [1]: 112 nM

CCc1cc(C(=O)N[C@@H]2C[C@@H](C(=O)NCc3ccc(OC(F)(F)F)cc3)N(C(=O)c3coc4ccccc34)C2)n(C)n1
MIC90 [2]: 23.4 µM (≈ 13.7 µg/mL) | IC50 [1]: 5 nM

CCc1cc(C(=O)N[C@@H]2C[C@@H](C(=O)Nc3cc(C)on3)N(C(=O)c3coc4ccccc34)C2)n(C)n1
MIC90 [2]: 16 µM (≈ 7.85 µg/mL) | IC50 [1]: 18 nM

CCc1cc(C(=O)N[C@@H]2C[C@@H](C(=O)NCCO)N(C(=O)c3coc4ccccc34)C2)n(CC)n1
MIC90 [2]: 1 µM (≈ 0.468 µg/mL) | IC50 [1]: 3 nM

CCc1cc(C(=O)N[C@@H]2C[C@@H](C(=O)Nc3nc(C)co3)N(C(=O)c3coc4ccccc34)C2)n(C)n1
MIC90 [2]: 8 µM (≈ 3.92 µg/mL) | IC50 [1]: 9 nM

CCc1cc(C(=O)N[C@@H]2C[C@@H](C(=O)NCCN(C)C)N(C(=O)c3coc4ccccc34)C2)n(C)n1
MIC90 [2]: > 31 µM | IC50 [1]: 170 nM

CCc1cc(C(=O)N[C@@H]2C[C@@H](C(=O)NCC(F)(F)F)N(C(=O)c3coc4ccccc34)C2)n(C)n1
MIC90 [2]: 4 µM (≈ 1.97 µg/mL) | IC50 [1]: 46 nM

CCc1cc(C(=O)N[C@@H]2C[C@@H](C(=O)NCc3cnc(C)cn3)N(C(=O)c3coc4ccccc34)C2)n(C)n1
MIC90 [2]: 8 µM (≈ 4.12 µg/mL) | IC50 [1]: 22 nM

CCc1cc(C(=O)N[C@@H]2C[C@@H](C(=O)NCc3ncco3)N(C(=O)c3coc4ccccc34)C2)n(C)n1
MIC90 [2]: 1 µM (≈ 0.491 µg/mL) | IC50 [1]: 5 nM

CCc1cc(C(=O)N[C@@H]2C[C@@H](C(=O)NCCOC)N(C(=O)c3coc4ccccc34)C2)n(C)n1
MIC90 [2]: 4 µM (≈ 1.87 µg/mL) | IC50 [1]: 14 nM

CCc1cc(C(=O)N[C@@H]2C[C@@H](C(=O)NCc3nccs3)N(C(=O)c3coc4ccccc34)C2)n(C)n1
MIC90 [2]: 2 µM (≈ 1.01 µg/mL) | IC50 [1]: 17 nM

CCc1cc(C(=O)N[C@@H]2C[C@@H](C(=O)NCC(=O)NC)N(C(=O)c3coc4ccccc34)C2)n(C)n1
growth inhibition (GI) [2]: Active

CCc1cc(C(=O)N[C@@H]2C[C@@H](C(=O)NCC(=O)OC)N(C(=O)c3coc4ccccc34)C2)n(CCO)n1
MIC90 [2]: > 31 µM | IC50 [1]: > 1000 nM

CCc1cc(C(=O)N[C@@H]2C[C@@H](C(=O)NCCc3ccccn3)N(C(=O)c3coc4ccccc34)C2)n(CC)n1
MIC90 [2]: 0.5 µM (≈ 0.264 µg/mL) | IC50 [1]: 4 nM

COC(=O)CNC(=O)[C@@H]1C[C@@H](NC(=O)c2cc(CC(C)C)nn2C)CN1C(=O)c1coc2ccccc12
MIC90 [2]: > 31 µM | IC50 [1]: > 1000 nM

CCc1cc(C(=O)N[C@@H]2C[C@@H](C(=O)NCc3nc4ccccc4o3)N(C(=O)c3coc4ccccc34)C2)n(C)n1
MIC90 [2]: 0.5 µM (≈ 0.27 µg/mL) | IC50 [1]: 3 nM

CCc1cc(C(=O)N[C@@H]2C[C@@H](C(=O)NCc3ccc(F)c(F)c3)N(C(=O)c3coc4ccccc34)C2)n(C)n1
MIC90 [2]: 2 µM (≈ 1.07 µg/mL) | IC50 [1]: 9 nM

CCc1cc(C(=O)N[C@@H]2C[C@@H](C(=O)NCc3ccccc3)N(C(=O)c3coc4ccccc34)C2)n(C)n1
MIC90 [2]: 4 µM (≈ 2 µg/mL) | IC50 [1]: 41 nM

COC(=O)CNC(=O)[C@@H]1C[C@@H](NC(=O)c2cc(C3CC3)nn2C)CN1C(=O)c1coc2ccccc12
MIC90 [2]: 1 µM (≈ 0.494 µg/mL) | IC50 [1]: 15 nM

CCc1cc(C(=O)N[C@@H]2C[C@@H](C(=O)NCc3ccc(C)o3)N(C(=O)c3coc4ccccc34)C2)n(C)n1
MIC90 [2]: 1.5 µM (≈ 0.755 µg/mL) | IC50 [1]: 21 nM

CCNC(=O)[C@@H]1C[C@@H](NC(=O)c2cc(CC)nn2C)CN1C(=O)c1ccc2sccc2c1
IC50 [1]: 121 nM

CCc1cc(C(=O)N[C@@H]2C[C@@H](C(=O)NCC(=O)N(C)C)N(C(=O)c3coc4ccccc34)C2)n(C)n1
growth inhibition (GI) [2]: Active

CCc1cc(C(=O)N[C@@H]2C[C@@H](C(=O)OC)N(C(=O)c3coc4ccccc34)C2)n(C)n1
IC50 [1]: 215 nM

CCNC(=O)[C@@H]1C[C@@H](NC(=O)c2cc(CC)nn2C)CN1C(=O)c1ccc2occc2c1
IC50 [1]: 74 nM

CCc1cc(C(=O)N[C@@H]2C[C@@H](C(=O)NCC(N)=O)N(C(=O)c3coc4ccccc34)C2)n(C)n1
growth inhibition (GI) [2]: Active
